For orientation: melting point means the temperature, or range, at which the solid turns liquid. The compound `CC1(C)CON(Cc2ccc(NC(=O)Cc3ccccc3C(=O)O)cc2Cl)C1=O` had a melting point of 194 to 196 °C.

Take `CSC(=NCCSCc1ccccn1)NC#N`: the melting point is 85 to 88 °C.

`CC(C)(C)OC(=O)N[C@@H]1C(=O)N(OCc2ccccc2)C1(C)C` came in with a melting point of 121 to 122 °C.

Consider `Nc1c(Cl)cc(C(O)CNCCCCCCOCCc2ccc(N3CCOCC3)cc2)cc1Cl` (stereo unspecified), for which the melting point lay within 102 to 103 °C.

In turn, `COCOc1ccc(C=C[N+](=O)[O-])cc1OCc1ccccc1` gave a melting point of 75 to 76 °C.

Regarding `CC1(CNC(=O)C(F)(F)F)CN(C(c2ccccc2)c2ccccc2)C1`, the melting point lay within 127 to 128 °C.

With `Cc1cc(C2(C(F)(F)F)CC(C#N)=C(c3ccccc3)O2)ccc1NC(=O)OC(C)(C)C` (stereo unspecified), the melting point was 46 to 49 °C.

In turn, `CCOC(=O)CCc1nc(-c2ccc(Cl)cc2)co1` gave a melting point of 65 to 66 °C.

Turning to `CNc1c(-c2cc(Cl)ccc2O)c2cc(C(F)(F)F)ccc2[nH]c1=O`, the melting point lay in the range of 238 to 240 °C.

The compound `CC(C)[C@H](C/C=C/C[C@H](C(=O)N1C(=O)OC[C@@H]1Cc1ccccc1)C(C)C)C(=O)N1C(=O)OC[C@@H]1Cc1ccccc1` yielded a melting point of 108 to 109 °C.

Consider `COc1cc2c(cc1Br)-c1c(-c3cccs3)c3c(n1CC2)C(=O)N(C)C(C)(C)CC3`, for which the melting point is 173 to 175 °C.

In turn, `O=C(NN1CCCCC1)c1ccc(N2CCN(C(=O)N3CCC(c4cn[nH]c4)C3)c3ccccc32)cc1` (stereo unspecified) displayed a melting point of 251 °C.

The compound `Cc1nc2c(c(=O)[nH]1)-c1cc(S(=O)(=O)Nc3ccc(C(N)=O)cc3)ccc1CC2` registered a melting point of 190 °C.

Consider `CC(=O)CCC(CC=O)C(C)(C)OC(C)=O` (stereo unspecified), for which the melting point was found to be 24 °C.

`O=C(CCl)NC1(c2ccccc2Cl)C(=O)Nc2ccc(Cl)cc21` (stereo unspecified) registered a melting point of 230 °C.

The compound `CC1CN(c2ccncc2Oc2ccccc2)CCN1` (stereo unspecified) showed a melting point of 55 to 57 °C.

For the compound `CCC/C=C/c1ccc(C#CC(C)(C)O)c(F)c1`, the melting point was 62 °C.

`CN1CC(Oc2ccc(Nc3cc(Br)cn(C)c3=O)nc2)C1`: the melting point was in the range of 100 to 101 °C.

On to `CCC(=O)C1C(=O)CC(c2ccc(C3CC(=O)C(C(=O)CC)C(=O)C3)cc2)CC1=O` (stereo unspecified), for which the melting point was 261 °C.

In turn, `O=c1ccn(-c2cccc(C(F)(F)F)c2)nc1-c1cc(C(F)(F)F)nn1-c1ccccc1` showed a melting point of 190 to 191 °C.

As for `OC/C=C(\c1ccccc1)c1ccc(C#Cc2ccccc2)cc1`, the melting point was 115 to 117 °C.

Consider `COC(=O)NCc1nc(-c2cc(C(C)(C)C)c(O)c(C(C)(C)C)c2)cs1`, for which the melting point lay within 94 to 95.9 °C.

Regarding `S=C(Nc1ccccc1)OC1CN2CCC1CC2` (stereo unspecified), the melting point was 132 to 133 °C.

`O=C(O)COc1ccc(SCc2cc(-c3ccccc3Cl)on2)c2c1CCC2` had a melting point of 161 to 162 °C.

Consider `COc1ccc(Cl)cc1NC(=O)[C@H]1[C@H](c2ccc(S(N)(=O)=O)c(C)c2)C1(C)C` (relative stereo), for which the melting point fell in the range of 118 to 121 °C.

Consider `CCCc1nc(C)n2[nH]c(=O)nc2c1Cc1ccc(-c2ccccc2C#N)cc1`, for which the melting point was in the range of 215 to 216 °C.

Regarding `Cc1cccc(Nc2cc(Cl)nc(SCC(=O)NN3CCOCC3)n2)c1C`, the melting point fell in the range of 106 to 108 °C.

The compound `C#CCOCCn1c(N2CCN(C)CC2)nc2ccccc21` yielded a melting point of 145 to 146 °C.

`CC1CCC2(C)C(=CCC3C4CC(Cl)C(=O)C4(C)CCC32)C1` (stereo unspecified) gave a melting point of 159 to 165 °C.

For the compound `CC(=O)c1ccc(-c2ncc[nH]2)cc1`, the melting point fell in the range of 213 to 216 °C.

As to `CC#CCOc1ccc(S(=O)(=O)N(C)C(C(=O)NO)c2ccc(OCCCNC(=O)OCC)cc2)cc1` (stereo unspecified), the melting point was in the range of 60 to 62 °C.

On to `Cc1cc(-c2c(Cl)c(=O)c2=O)c2c(C)ccc(C(C)C)cc1-2`, for which the melting point is 138 to 139 °C.

The compound `COC(=O)N1CCc2ccc(N)cc2CC1` displayed a melting point of 100 to 104 °C.

`CCCCC#Cc1nc(N)n2nc(-c3ccco3)nc2n1` returned a melting point of 188 to 191 °C.

With `CN1CCC2(CC1)OCc1ccccc12`, the melting point lay within 76 to 77 °C.

With `CCCN(CCC)C1Cc2cccc3c2N(C1)C(=O)CN3` (stereo unspecified), the melting point fell in the range of 97 to 99 °C.

As to `Nc1cc(F)c2[nH]nc(NC(=O)c3ccccc3)c2c1`, the melting point is 208 °C.

For the compound `CC#CC(Cc1cccnc1)(C(=O)O)S(=O)(=O)c1ccc(OC)cc1` (stereo unspecified), the melting point was 119 to 121 °C.

In turn, `CCN(CC)C(=O)c1ccc(C(=O)N2CCN(c3ncccc3NC(C)C)CC2)nc1` had a melting point of 100 to 102 °C.

`C#CCN(C(=O)c1cc(C)oc1C(F)(F)F)S(=O)(=O)c1cccc(Cl)c1` yielded a melting point of 70 to 72 °C.

Regarding `CCNCC1Cc2cc(F)cc(-c3c(Cl)cccc3Cl)c2O1` (stereo unspecified), the melting point is 138 °C.

As for `CCOC(Nc1ccccc1)(OCC)C1(Cl)C=CN=C(C(=O)c2ccc(Cl)cc2)C1` (stereo unspecified), the melting point lay within 123 to 124 °C.

In the case of `COc1ccc(/C=C/C(=O)/C=C/c2ccc(OC)c(O)c2)cc1O`, the melting point lay in the range of 195 to 197 °C.

Compound `COc1cc(N)c(Cl)cc1C(=O)NCC1CCN(CCCCCC(=O)c2csc3ccccc23)CC1` gave a melting point of 130 to 132 °C.

The compound `COc1ccc(CC(C)NC(=O)C(F)(F)F)cc1` (stereo unspecified) showed a melting point of 100 to 102 °C.

Consider `COc1ccc2cc(C3SCCCS3)ccc2c1`, for which the melting point is 190 °C.

Consider `CCc1noc(-c2ccc(OCCC3CN(c4ccc(Cl)nn4)CCO3)cc2)n1` (stereo unspecified), for which the melting point amounted to 164 °C.

Take `CCCCCC(CC(=O)Nc1cc(C(=O)O)ccc1C(C)(C)C)c1ccc(C(=O)CCC)cc1OC` (stereo unspecified): the melting point was 136 to 138 °C.

For `CCOC(=O)[C@@H]1C[C@H]2C[C@H](COCC#N)CC[C@H]2CN1C(=O)OC` (racemic), the melting point amounted to 263 °C.

The compound `NS(=O)(=O)c1ccc(Nc2nc(OCC3CC=CCC3)c3nc[nH]c3n2)cc1` (stereo unspecified) showed a melting point of 165 °C.

Turning to `CC(C)CC(NC(=O)OCc1ccccc1)C(=O)NC(C(=O)Nc1n[nH]c(=S)s1)C(C)C` (stereo unspecified), the melting point turned out to be 146 °C.

Turning to `COc1ccc(Cn2c(=O)n(C3CCCCC3)c3cc(Cl)ccc32)cc1OC`, the melting point is 59 °C.

For `CC(C)(C)c1cc(CCC(=O)ON(Cc2ccccc2)Cc2ccccc2)cc(C(C)(C)C)c1O`, the melting point was 93 to 95.5 °C.

With `CCCc1c(Cc2ccccc2C(=O)O)cccc1OCCCOc1cc(O)c(-c2ccc(F)cc2)cc1CC`, the melting point is 150 to 151 °C.

The compound `O=C(NC(=O)N1CCC(Cc2ccccc2)CC1)c1ccc(OCc2ccccc2)cc1` yielded a melting point of 155 to 156 °C.

In turn, `Cc1cc(C)cc(N(CCO)Cc2ccc3nc(NCCCN4CCOCC4)n(Cc4nc(C)c(C)nc4C)c3c2)c1` came in with a melting point of 140 °C.

As for `COc1ccc(COc2ncccc2C(=O)O)cc1OC1CC2CCC1C2` (stereo unspecified), the melting point stood at 50 °C.

The compound `COC(=O)C(NCc1cn(Cc2ccccc2)c2ccccc12)c1ccccc1` (racemic) showed a melting point of 72 to 75 °C.

`O=C(CC1C2CC3CC(C2)CC1C3)Nc1cccc2[nH]ccc12` (stereo unspecified): the melting point lay within 206 to 208 °C.

For `COC(=O)c1cc(=O)c2ccccc2o1`, the melting point lay within 120 to 122 °C.

The compound `O=C1N(C(c2ccccc2)c2ccccc2)c2ccccc2C1(O)c1cc2c(cc1O)OCCO2` (stereo unspecified) registered a melting point of 210 to 212 °C.

The compound `O=C(NOCCO)c1cc(F)c(F)c(F)c1Nc1ccc(I)cc1Cl` showed a melting point of 183 to 184 °C.

`COc1cc(-n2c(-c3cc(-c4cnc5[nH]ccc5c4)ccn3)cn(C)c2=O)ccc1Cl` came in with a melting point of 223 °C.

For the compound `COc1ccc2c(c1)CCN(Cc1c[nH]c3ncccc13)C2`, the melting point lay in the range of 144 to 146 °C.

Compound `Fc1cc(F)c2c(c1)CCC2n1cc[nH]c1=S` (stereo unspecified) showed a melting point of 212 to 215 °C.

`CCOC(=O)c1ccccc1NC(=O)c1oc2nn(C(C)C)c(C)c2c1C` showed a melting point of 155 to 158 °C.

Take `CC(C)c1noc(-c2ncn3c2[C@@H]2CCCN2C(=O)c2c(Cl)cccc2-3)n1`: the melting point was in the range of 187 to 188 °C.

`C=CCC(C)(C)C(NC(=O)c1ccc(Cl)cc1)NC(=N[N+](=O)[O-])Nc1cccnc1` (stereo unspecified): the melting point fell in the range of 200 to 203 °C.

`N#CCC1(O)CCc2ccccc2C12CCCC2` (stereo unspecified): the melting point is 165 to 166 °C.

`CN1C(=O)c2cccnc2N(CCO)c2ccccc21` registered a melting point of 133 to 134 °C.

Compound `COc1cc(Oc2cccc(C(F)(F)F)c2)nc(C(=O)NC2CC2)c1` came in with a melting point of 106 to 109 °C.

Consider `CC(C)CN(CCCc1ccc(F)cc1)[C@H]1CC[C@H](c2ccc3[nH]c(=O)oc3c2)CC1`, for which the melting point was 199 to 201 °C.

In turn, `CNC(=O)N(c1ccc(OC(F)(F)F)cc1)c1nc(OCC(F)(F)F)cc(OCC(F)(F)F)n1` showed a melting point of 123 to 125 °C.

In turn, `CC(CCCCCCNC(=O)c1ccc(OC(F)(F)F)cc1)NC(=O)c1ccc(OC(F)(F)F)cc1` (stereo unspecified) came in with a melting point of 137 to 138 °C.

`CCOC(=O)/C=C/c1ccc(O)cc1OCc1ccccc1`: the melting point was in the range of 131 to 133 °C.

With `O=C1CCC(c2cc(F)c(F)c(F)c2)CC1`, the melting point turned out to be 124 °C.

In turn, `CC(=O)OC1CCN(c2c(F)cc3c(=O)c(C(=O)O)cn4c3c2CCC4C)CC1` (stereo unspecified) came in with a melting point of 250 to 253 °C.

The compound `CC1(C)OC(=O)c2c(cccc2OS(=O)(=O)C(F)(F)F)O1` registered a melting point of 115 °C.

`Cc1ccc(C)n1-c1nc(S(=O)(=O)Nc2c(Cl)cccc2Cl)n[nH]1` displayed a melting point of 107 to 108 °C.

`Cc1nccc2c3ccc(OCC4CCCCC4)cc3n(CC3CCCCC3)c12` had a melting point of 152 °C.

With `CN1Cc2ccccc2C(=O)c2cc(CC(=O)O)ccc21`, the melting point is 194 to 196 °C.

`CC(C)(C)OC(=O)COc1ccc2sc(-c3ccccn3)nc(=O)c2c1` had a melting point of 183 to 184 °C.

On to `O=C(OCc1ccccc1)C(C(=O)OCc1ccccc1)c1ncc(C(F)(F)F)cc1[N+](=O)[O-]`, for which the melting point fell in the range of 82 to 84 °C.

`O=C(Nc1ccc(-n2ncn(-c3ccc(OCC(F)(F)C(F)F)cc3)c2=O)cc1)Oc1ccccc1` registered a melting point of 204 to 206 °C.

The compound `NC(=NCC(F)(F)F)Nc1ccnc(SCCCC2=NCCN2)n1` displayed a melting point of 184 to 186 °C.

In turn, `CS(=O)(=O)c1ccc(-n2nc(C(F)(F)F)cc2-c2ccc(-n3ccnc3)cc2)cc1` displayed a melting point of 183 to 184 °C.

Values taken from a melting point compilation (Tetko et al.; mined from patent text by program, amines drawn as free bases though some values may be those of a salt).
